Experimental data: PubChem BioAssay (NCI)
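Five concentrations, 48 hours, 96-well plates. TGI is the concentration that stops growth completely.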

Key:
Experiment in all cases: DTP human tumour cell line panel, 48 h
[1] = test system: 786-0 renal
[2] = test system: A549 NSCLC
[3] = test system: ACHN renal
[4] = test system: BT-549 breast
[5] = test system: CAKI-1 renal
[6] = test system: CCRF-CEM leukemia
[7] = test system: COLO 205 colon
[8] = test system: DU-145 prostate
[9] = test system: EKVX NSCLC
[10] = test system: HCT-116 colon
[11] = test system: HCT-15 colon
[12] = test system: HL-60(TB) leukemia
[13] = test system: HOP-62 NSCLC
[14] = test system: HOP-92 NSCLC
[15] = test system: HS 578T breast
[16] = test system: HT29 colon
[17] = test system: IGROV1 ovarian
[18] = test system: K-562 leukemia
[19] = test system: KM12 colon
[20] = test system: LOX IMVI melanoma
[21] = test system: M14 melanoma
[22] = test system: MALME-3M melanoma
[23] = test system: MCF7 breast
[24] = test system: MDA-MB-231 breast
[25] = test system: MDA-MB-435
[26] = test system: MDA-N
[27] = test system: MOLT-4 leukemia
[28] = test system: NCI-H226 lung
[29] = test system: NCI-H23 lung
[30] = test system: NCI-H460 lung
[31] = test system: NCI-H522 lung
[32] = test system: NCI/ADR-RES ovarian
[33] = test system: OVCAR-3 ovarian
[34] = test system: OVCAR-4 ovarian
[35] = test system: OVCAR-5 ovarian
[36] = test system: OVCAR-8 ovarian
[37] = test system: PC-3 prostate
[38] = test system: RPMI-8226 leukemia
[39] = test system: RXF 393 renal
[40] = test system: SF-268 CNS
[41] = test system: SF-295 CNS
[42] = test system: SF-539 CNS
[43] = test system: SK-MEL-2 melanoma
[44] = test system: SK-MEL-5 melanoma
[45] = test system: SK-OV-3 ovarian
[46] = test system: SN12C renal
[47] = test system: SNB-19 CNS
[48] = test system: SNB-75 CNS
[49] = test system: SR leukemia
[50] = test system: SW-620 colon
[51] = test system: T-47D breast
[52] = test system: TK-10 renal
[53] = test system: U251 CNS
[54] = test system: UACC-257 melanoma
[55] = test system: UACC-62 melanoma
[56] = test system: UO-31 renal
[57] = test system: A498 renal
[58] = test system: HCC-2998 colon
[59] = test system: SK-MEL-28 melanoma

Work on `Cc1ccc(O)c(C2=CC(c3cccc(Br)c3)SC(N)=N2)c1` (stereo unspecified) yielded a TGI [1] of 74.4 µM, a TGI [2] of 88.3 µM and a TGI [3] of 52.2 µM. The TGI [4] was 83.6 µM, the TGI [5] was over 100 µM and the TGI [6] was 81.7 µM. It also gave a TGI [7] of 34.6 µM, a TGI [8] of over 100 µM and a TGI [9] of 59.9 µM. The TGI [10] was 35.9 µM, the TGI [11] was 32.8 µM and the TGI [12] was 75.1 µM. The TGI [13] was 52 µM, the TGI [14] was 60.4 µM and the TGI [15] was 45 µM. The TGI [16] was over 100 µM, the TGI [17] was 46.5 µM and the TGI [18] was 83.2 µM. It also gave a TGI [19] of 82.3 µM, a TGI [20] of 34.7 µM and a TGI [21] of 62.9 µM. The TGI [22] was 78.9 µM, the TGI [23] was over 100 µM and the TGI [24] was 64 µM. It also gave a TGI [25] of 37.2 µM, a TGI [26] of 50.1 µM and a TGI [27] of 63.4 µM. It also gave a TGI [28] of 71.5 µM, a TGI [29] of 76.3 µM and a TGI [30] of 49.8 µM. It also gave a TGI [31] of 37.7 µM, a TGI [32] of 71.9 µM and a TGI [33] of over 100 µM. The TGI [34] was over 100 µM, the TGI [35] was 92.5 µM and the TGI [36] was over 100 µM. The TGI [37] was over 100 µM, the TGI [38] was 49.8 µM and the TGI [39] was 47.1 µM. The TGI [40] was 88.9 µM, the TGI [41] was 42.2 µM and the TGI [42] was 50.3 µM. It also gave a TGI [43] of 39.4 µM, a TGI [44] of 32 µM and a TGI [45] of 75.6 µM. It also gave a TGI [46] of 40.7 µM, a TGI [47] of 32.4 µM and a TGI [48] of 61.3 µM. For the same molecule, the TGI [49] was 49.7 µM, the TGI [50] was over 100 µM and the TGI [51] was 87.9 µM. It also gave a TGI [52] of 46.1 µM, a TGI [53] of 33.4 µM and a TGI [54] of 41.3 µM. For the same molecule, the TGI [55] was 34.5 µM and the TGI [56] was 65.3 µM.

For `CCOC(=O)CN1CC(C2=C(O)CN(CC(=O)OCC)C2=O)=CC1=O`, the TGI [1] was over 100 µM, the TGI [57] was over 100 µM and the TGI [2] was over 100 µM. It also gave a TGI [3] of over 100 µM, a TGI [4] of over 100 µM and a TGI [5] of over 100 µM. It also gave a TGI [6] of over 100 µM, a TGI [7] of over 100 µM and a TGI [8] of over 100 µM. It also gave a TGI [9] of over 100 µM, a TGI [58] of over 100 µM and a TGI [10] of over 100 µM. For the same molecule, the TGI [11] was over 100 µM, the TGI [12] was over 100 µM and the TGI [13] was over 100 µM. The TGI [14] was over 100 µM, the TGI [15] was over 100 µM and the TGI [16] was over 100 µM. The TGI [17] was over 100 µM, the TGI [18] was over 100 µM and the TGI [19] was over 100 µM. The TGI [20] was over 100 µM, the TGI [21] was over 100 µM and the TGI [22] was over 100 µM. For the same molecule, the TGI [23] was over 100 µM, the TGI [24] was over 100 µM and the TGI [25] was over 100 µM. It also gave a TGI [26] of over 100 µM, a TGI [27] of over 100 µM and a TGI [28] of over 100 µM. It also gave a TGI [29] of over 100 µM, a TGI [30] of over 100 µM and a TGI [31] of over 100 µM. It also gave a TGI [32] of over 100 µM, a TGI [33] of over 100 µM and a TGI [34] of over 100 µM. It also gave a TGI [35] of over 100 µM, a TGI [36] of over 100 µM and a TGI [37] of over 100 µM. The TGI [38] was over 100 µM, the TGI [40] was over 100 µM and the TGI [41] was over 100 µM. For the same molecule, the TGI [42] was over 100 µM, the TGI [43] was over 100 µM and the TGI [59] was over 100 µM. It also gave a TGI [44] of over 100 µM, a TGI [45] of over 100 µM and a TGI [46] of over 100 µM. For the same molecule, the TGI [47] was over 100 µM, the TGI [48] was over 100 µM and the TGI [49] was over 100 µM. The TGI [50] was over 100 µM, the TGI [51] was over 100 µM and the TGI [52] was over 100 µM. It also gave a TGI [53] of over 100 µM, a TGI [54] of over 100 µM and a TGI [55] of over 100 µM. The TGI [56] was over 100 µM.

`CC(C)(C)OC(=O)Cn1ncn(NC(=O)Cc2ccccc2)c1=O` was tested, and the TGI [1] was over 10 µM, the TGI [57] was over 10 µM and the TGI [2] was over 10 µM. It also gave a TGI [3] of over 10 µM, a TGI [4] of over 10 µM and a TGI [5] of over 10 µM. The TGI [6] was over 10 µM, the TGI [7] was over 10 µM and the TGI [8] was over 10 µM. For the same molecule, the TGI [9] was over 10 µM, the TGI [58] was over 10 µM and the TGI [10] was over 10 µM. The TGI [11] was over 10 µM, the TGI [13] was over 10 µM and the TGI [14] was over 10 µM. The TGI [15] was over 10 µM, the TGI [16] was over 10 µM and the TGI [17] was over 10 µM. For the same molecule, the TGI [18] was over 10 µM, the TGI [19] was over 10 µM and the TGI [20] was over 10 µM. The TGI [21] was over 10 µM, the TGI [22] was over 10 µM and the TGI [23] was over 10 µM. For the same molecule, the TGI [24] was over 10 µM, the TGI [25] was over 10 µM and the TGI [26] was over 10 µM. It also gave a TGI [27] of over 10 µM, a TGI [28] of over 10 µM and a TGI [29] of over 10 µM. For the same molecule, the TGI [30] was over 10 µM, the TGI [31] was over 10 µM and the TGI [32] was over 10 µM. It also gave a TGI [33] of over 10 µM, a TGI [34] of over 10 µM and a TGI [35] of over 10 µM. The TGI [36] was over 10 µM, the TGI [37] was over 10 µM and the TGI [40] was over 10 µM. It also gave a TGI [41] of over 10 µM, a TGI [42] of over 10 µM and a TGI [59] of over 10 µM. For the same molecule, the TGI [44] was over 10 µM, the TGI [45] was over 10 µM and the TGI [46] was over 10 µM. The TGI [47] was over 10 µM, the TGI [49] was over 10 µM and the TGI [50] was over 10 µM. The TGI [51] was over 10 µM, the TGI [52] was over 10 µM and the TGI [53] was over 10 µM. It also gave a TGI [54] of over 10 µM, a TGI [55] of over 10 µM and a TGI [56] of over 10 µM.

For `CN(C(=O)Cc1cc(Cl)c(Cl)cc1NC(=O)CN)[C@H]1CCCC[C@@H]1N1CCCC1`, the TGI [1] was 38 µM, the TGI [57] was 51.2 µM and the TGI [2] was over 100 µM. The TGI [3] was over 100 µM, the TGI [4] was over 100 µM and the TGI [5] was over 100 µM. For the same molecule, the TGI [6] was 73.3 µM, the TGI [8] was over 100 µM and the TGI [9] was over 100 µM. For the same molecule, the TGI [58] was 31.6 µM, the TGI [10] was over 100 µM and the TGI [11] was over 100 µM. The TGI [12] was 52.7 µM, the TGI [13] was over 100 µM and the TGI [14] was over 100 µM. It also gave a TGI [15] of 64 µM, a TGI [16] of 58.7 µM and a TGI [17] of over 100 µM. For the same molecule, the TGI [18] was 57.5 µM, the TGI [19] was over 100 µM and the TGI [20] was 41.6 µM. For the same molecule, the TGI [21] was 33.5 µM, the TGI [22] was 36.1 µM and the TGI [23] was over 100 µM. It also gave a TGI [24] of 71.2 µM, a TGI [25] of 32.6 µM and a TGI [26] of 31.7 µM. The TGI [27] was over 100 µM, the TGI [29] was over 100 µM and the TGI [30] was over 100 µM. The TGI [32] was over 100 µM, the TGI [33] was over 100 µM and the TGI [34] was over 100 µM. The TGI [35] was over 100 µM, the TGI [36] was over 100 µM and the TGI [37] was over 100 µM. It also gave a TGI [38] of 94 µM, a TGI [39] of over 100 µM and a TGI [40] of over 100 µM. It also gave a TGI [41] of 77.1 µM, a TGI [43] of 35.7 µM and a TGI [45] of over 100 µM. It also gave a TGI [46] of over 100 µM, a TGI [47] of over 100 µM and a TGI [48] of 55.9 µM. For the same molecule, the TGI [49] was 77.8 µM, the TGI [50] was over 100 µM and the TGI [51] was 98.4 µM. It also gave a TGI [52] of over 100 µM, a TGI [53] of 32.6 µM and a TGI [54] of 33.9 µM. The TGI [55] was 30.2 µM and the TGI [56] was over 100 µM.
